The values below are quoted from earlier work in patent publication US9562052B2, “Bicyclicpyridine derivatives” (Hoffmann-La Roche Inc., priority 2012, dated 2017).

The structures appear in SMILES notation.

The test system of data set [1] is ApoE KO mice.
Data set [2] concerns ob/ob mice.

Turning to `CCc1c(-c2ccccc2)c(-c2ccccc2)nn1-c1ccccc1-c1cccc(OCC(=O)O)c1` [BMS309403], in data set [1], the atherosclerotic plaques formation entry is recorded as “decrease”. In data set [2], the “body weight and energy consumption” value is on record as “no change”; the hepatic steatosis result is given as “reduction”. In data set [2] (clamp study), the “glucose uptake in muscle and adipose” value was “increased”; the hepatic glucose production result was “reduction”.
